We go through eleven compounds from PMC11042500 (Journal of medicinal chemistry, 2020).

Read-outs that look alike come from different tables or passages of the source.

Series [1] concerns STAM mouse model of NASH. As to conditions: STZ-induced mouse model of NASH; cited from earlier work.
Series [2] deals with L6 rat myoblast cells. Briefly: Oxygen consumption rate. The note with it: for uncoupling activity (in words): OCR in L6 rat myoblast cells.
Series [3] can be described thus: Core body temperature after acute oral dose. Format: in vivo. The note with it: acute oral dose 5, 20, 50 mg/kg, up to 4 h, C57BL/6 male mice; listed as SHS4121705.
Series [4] concerns STAM mouse model of NASH. Briefly: STAM. Format: in vivo, mice. The note with it: SHS4121705 25 mg kg−1 d−1 in food.
For series [5] the following is noted: use in humans; cited from earlier work.

Regarding `Fc1cccc(Nc2nc3nonc3nc2Nc2ccccc2F)c1` [compound 9], in series [1], the fibrosis score entry was “reduced”, the inflammation score entry is given as “reduced” and the liver triglyceride levels entry is “lowered”.

`CCCCCCCCCCc1ccc(Nc2nccnc2O)cc1` [16b, 3-((4-Decylphenyl)amino)pyrazin-2-ol]: in series [2], the “uncoupling activity (in words)” value was “inactive”.

Consider `Oc1nc2nonc2nc1Nc1ccc(C(F)(F)F)c(F)c1` [12v, 6-((3-Fluoro-4-(trifluoromethyl)phenyl)amino)-[1,2,5]oxadiazolo[3,4-b]pyrazin-5-ol], for which the “fold less potent than 12i” value in series [2] (OCR EC50 relative to 12i) is reported as greater than 2 fold.

Take `CN(c1ccccc1F)c1nc2nonc2nc1O` [12ae, 6-((2-Fluorophenyl)(methyl)amino)-[1,2,5]oxadiazolo[3,4-b]pyrazin-5-ol]: in series [2], the “uncoupling activity (in words)” value is “completely devoid of uncoupling activity”.

Consider `COc1nc2nonc2nc1Nc1ccc(OC(F)(F)F)cc1` [compound 13, 6-Methoxy-N-(4-(trifluoromethoxy)phenyl)-[1,2,5]oxadiazolo[3,4-b]pyrazin-5-amine], for which the “uncoupling activity (in words)” value in series [2] is “significantly abrogated”.

For the compound `Oc1nc2nonc2nc1Nc1ccc(OC(F)(F)F)cc1` [12i, 6-((4-(Trifluoromethoxy)phenyl)amino)-[1,2,5]oxadiazolo[3,4-b]pyrazin-5-ol], in series [3], the “effect on core body temperature” value was “no effect”. Moreover, in series [4] (21 days), the ballooning score stood at 0.25 ± 0.16, the inflammation score stood at 2.38 ± 0.18 and the steatosis score was 0 ± 0. Besides, the “NAS score (NAFLD activity score)” value in series [4] (liver, day 21) is on record as 2.63 ± 0.18.

As to `Oc1nccnc1Nc1ccccc1F` [16a, 3-((2-Fluorophenyl)amino)pyrazin-2-ol], the “uncoupling activity (in words)” value in series [2] was “inactive”.

Regarding `Oc1nccnc1Nc1ccc(-c2ccc(F)cc2)cc1` [16h, 3-((4′-Fluoro-[1,1′-biphenyl]-4-yl)amino)pyrazin-2-ol], the “uncoupling activity (in words)” value in series [2] is “inactive”.

Regarding `COc1cccc(-c2ccc(Nc3nccnc3O)cc2)c1` [16g, 3-((3′-Methoxy-[1,1′-biphenyl]-4-yl)amino)pyrazin-2-ol], in series [2], the “uncoupling activity (in words)” value was “inactive”.

In the case of `O=[N+]([O-])c1ccc(O)c([N+](=O)[O-])c1` [DNP, 2,4-dinitrophenol], in series [5], the increase in metabolism is given as greater than 50%.

Regarding `Oc1nc2nonc2nc1Nc1ccccc1F` [12a, 6-((2-Fluorophenyl)amino)-[1,2,5]oxadiazolo[3,4-b]pyrazin-5-ol], the loss of potency in series [2] (OCR EC50 of 12a compared with parent diamine uncoupler) came out at 40 ×.
